{
  "source": "patent US11045419B2",
  "about": "“Pharmaceutical preparation of carbohydrates for therapeutic use” (Glycomine, Inc., priority 2013, dated 2021)",
  "system": "CDG-Ia fibroblasts",
  "assay": "LLO oligosaccharide distribution in fibroblasts by normal phase chromatography",
  "type": "cell-based, human",
  "conditions": "low glucose DMEM, 300 μM treatment, peak area normalized to protein content",
  "experimental": "Cellular internalization into the cytosol and subsequent integration of the M1P-liposomes (as prepared in Example 1), was assessed in vitro using primary human dermal fibroblasts derived from patients affected with CDG-Ia disorder (CDG-Ia fibroblasts) and wild-type human dermal fibroblasts. For evaluation of the ability of the M1P-liposomes to correct protein glycosylation defects, M1P-liposomes were delivered to CDG Type I primary fibroblasts derived from patients affected with CDG-Ia disorder. The ability to drive glycosylation forward was evaluated by comparing glycoprotein N-glycan structure before and after treatment. Such comparison required N-glycan analysis using normal phase chromatography. By utilizing endocytotic pathways, M1P-liposomes can enter the cell interior and release their cargo into the cytosol. Due to the ability to deliver a non-modified mannose-1-phosphate into the cytosol, analysis was performed on the assembly of LLO oligosaccharides in wild-type fibroblasts and fibroblasts derived from a CDG-Ia patient ([…] structures were isolated from the wild-type fibroblasts (having 100% PMM activity) as well as from the CDG-Ia fibroblasts (having 10% PMM activity) and the amounts of the LLO structures were compared using chromatographic methods. CDG-Ia dermal fibroblasts make a series of truncated lipid-linked oligosaccharide (LLO) species ranging in size from M2Gn2 to M5Gn2 with M2Gn2 and M3Gn2 being predominant. The M1P liposomes from Example 1 were tested in order to evaluate their capacity to normalize the distribution of various LLO oligosaccharides. CDG-Ia fibroblasts cultured in low glucose DMEM media were incubated with 300 μM of bare M1P (M1P) and 300 μM of the M1P-liposomes (M1PL). After treatment, cells were harvested and LLO oligosaccharides were recovered, hydrolyzed, modified with fluorophore, and analyzed by normal phase chromatography as described by Gao et al. (Methods in Enzymology, 2006, 415, 3-20) and Bones et al. (Anal. Chem, 2011, 83 (13), 5344-52). The peak area of each LLO was normalized to protein content prior to calculation of percentage abundance.",
  "data": [
    {"smiles": "O=P(O)(O)OC1O[C@H](CO)[C@@H](O)[C@H](O)[C@@H]1O", "note": "(stereo partly shown) [M1P, mannose-1-phosphate]", "values": [
      {"measurement": "M2Gn2 LLO oligosaccharide distribution (percentage abundance)", "value": 40, "unit": "%"},
      {"measurement": "M3Gn2 LLO oligosaccharide distribution (percentage abundance)", "value": 24, "unit": "%"},
      {"measurement": "M4Gn2 LLO oligosaccharide distribution (percentage abundance)", "value": 27, "unit": "%"},
      {"measurement": "M5Gn2 LLO oligosaccharide distribution (percentage abundance)", "value": 8.9, "unit": "%"}
    ]}
  ]
}
